Results taken from patent US20250386824A1, “COMPOSITION OF AN ORGANIC SULFIDE COMBINED WITH GLUCOSE AND USE THEREOF IN CONTROLLING MELON FUSARIUM WILT” (CH BIOTECH R&D CO., LTD., priority 2024, published 2025).

How the values were obtained:
melon's third leaf = experiment: Chlorophyll fluorescence photosynthesis: electron transport rate (ETR) of melon's third leaf after foliar spraying; conditions: foliar spray, after 30 minutes of actinic light, mean ± SE, n=5
Description: In the following examples, a melon species Cucumis melo var. makuwa cv. Silver Light (Nongyou Seedling Co., Kaohsiung, Taiwan) is used as the test crop. Seeds of the test crop are stirred and rinsed in warm water at 65° C. for 20 minutes, then further stirred and rinsed with sterile water twice, each for 20 minutes, and then placed in a 25° C. incubator for germination for 48 hours. After the radicle has grown, the seedlings are sown in trays containing Sondermischung (perlite high) cultivating medium (Gramoflor, Germany). When the leaves are fully expanded, the seedlings are transplanted into 3.5-inch plastic pots (inner diameter: 9 cm) and continue planting. The melon plants are ready for following experiments when their first real leaves are fully expanded (the plant is about 7 days of age).
The compositions of 3% (w/v) glucose amended with 1% (w/v) an organic sulfide selected from allicin, dimethyl disulfide (DMDS), lipoic acid, methionine and taurine, with two hundred-fold and four hundred-fold dilution in water, are sprayed on the leaves of the melon seedlings, and the chlorophyll fluorescence photosynthesis of the third real leaf is investigated during the growing period of melons. […] The third real leaf of melon is clipped to measure the leaf chlorophyll fluorescence parameters. […]

[1] = tested on: Fusarium oxysporum f.sp. melonis; experiment: Greenhouse pot test: disease severity of melon Fusarium wilt after foliar spraying and root-cut inoculation; format: in vivo; conditions: Example 1, FIG. 1: 3% (w/v) glucose + 1% (w/v) organic sulfide, 400-fold dilution, foliar spray at 7 and 14 days of age; 3 weeks after inoculation; untreated control 2.33±0.21; mean ± SE
Description: Preparation of the inoculation source of Fusarium oxysporum f.sp. melonis (FOM): the soil-borne pathogen FOM strain used in the example is isolated from diseased melon plants in Wufeng District, Taichung City (24°02′24.6 ″N 120°39′55.0 ″E). The single spores of the strain are independently cultured on potato dextrose agar (PDA; Difco®) medium plates in a 25° C. incubator with 12 hours of light exposure per day. The mycelial pieces of the FOM strain are inoculated into ½ potato dextrose broth (PDB) and incubated in shaking flasks for 14 days. After the incubation, the culture is filtered through a double-layer Miracloth (475855 Calbiochem, Merk Darmstadt, Germany) to obtain a spore suspension with a concentration of 10^5 spores/mL, which is ready to be used in the pathogenic infection of melon root.
At the 24 hours after the final spraying, the root of test melon plants is washed with water to remove the cultivating medium. […] After 3 weeks, the symptoms and severity of wilt disease in melon plants are observed and recorded. […]
The disease severity is calculated by the following formula, wherein si represents the severity of wilt disease; n; represents the number of plants with various severity, and N represents the total number of plants investigated.
Statistical Analysis. The results are analyzed using RStudio v.4.3.0 (R) software. […]

With `CSSC` [DMDS, dimethyl disulfide] the “ETR (electron transport rate of PSII on third leaf of melon)” value (melon's third leaf; 200X dilution of 1% (w/v) organic sulfide with 3% (w/v) glucose) was 110.24 ± 2.72 μmol electrons m^−2 s^−1, the “ETR (electron transport rate of PSII on third leaf of melon)” value (melon's third leaf; 400X dilution of 1% (w/v) organic sulfide with 3% (w/v) glucose) was 117.68 ± 3.83 μmol electrons m^−2 s^−1 and the “Disease severity of melon Fusarium wilt (scale 0-4)” value [1] was 1.83±0.25.
`NCCS(=O)(=O)O` [Taurine, 2-aminoethanesulfonic acid] was tested, and the “Disease severity of melon Fusarium wilt (scale 0-4)” value [1] was 2.00±0.18.
